Our source for the IC50 values is US7557102B2, “Pyrazolidine-1,2-dicarboxyldiphenylamide derivatives as coagulation factor Xa inhibitors for the treatment of thromboses” (Merck Patent GmbH, priority 2003, dated 2009).

Structures are written as SMILES.

The target in this assay is FXa (Homo sapiens, UniProt P00742). The assay can be described thus: Inhibition of factor Xa (Table 1, Pharmacological Data). Type of assay: biochemical.
Sequence of FXa (P00742 235-488 limits assumed): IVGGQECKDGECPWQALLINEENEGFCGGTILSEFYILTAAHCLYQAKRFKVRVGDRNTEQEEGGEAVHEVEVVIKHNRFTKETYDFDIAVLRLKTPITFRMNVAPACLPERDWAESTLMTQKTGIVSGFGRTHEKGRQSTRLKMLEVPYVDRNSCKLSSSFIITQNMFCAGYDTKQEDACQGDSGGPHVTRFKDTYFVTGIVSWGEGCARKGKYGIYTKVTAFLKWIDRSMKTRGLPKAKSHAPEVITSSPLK
Sequence of FXa (P00742 41-179 limits assumed): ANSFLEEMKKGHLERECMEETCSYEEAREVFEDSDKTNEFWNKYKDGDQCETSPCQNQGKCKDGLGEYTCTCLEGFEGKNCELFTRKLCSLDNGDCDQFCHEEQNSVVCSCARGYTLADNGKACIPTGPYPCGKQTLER
Take `C#Cc1ccc(NC(=O)N2CCCN2C(=O)Nc2ccc(N3CCOCC3=O)c(Cl)c2)cc1` [Compound A1, 1-N-[(4-Ethynylphenyl)]-2-N-{[3-chloro-4-(3-oxomorpholin-4-yl)phenyl]}-pyrazolidine-1,2-dicarboxamide]: 75 nM corresponded to half-maximal inhibition (IC50).

Compound `O=C1COCCN1c1ccc(NC(=O)N2CCCN2C(=O)Nc2ccc(Cl)cc2)cc1Cl` [Compound A2, 1-N-[(4-chlorophenyl)]-2-N-{[3-chloro-4-(3-oxomorpholin-4-yl)phenyl]}-pyrazolidine-1,2-dicarboxamide] showed an IC50 of 120 nM.

Turning to `O=C(Nc1ccc(Br)cc1)N1CCCN1C(=O)Nc1ccc(-n2ccccc2=O)cc1` [Compound A3, 1-N-[(4-bromophenyl)]-2-N-{[4-(2-oxo-2H-pyridin-1-yl)phenyl]}pyrazolidine-1,2-dicarboxamide], half-maximal inhibition (IC50) required 55 nM.
